Measured values: BindingDB's records for doi:10.1016/S0960-894X(01)80909-4 (1993)

Tests used:
[1] = target: Diamine oxidase (Sus scrofa); assay: Tested for ability to competitively inhibit hog kidney diamine oxidase (DAO) in a spectrometric assay
[2] = target: Diamine oxidase (Sus scrofa); assay: as above; remark: listed apart in the source

Row | Ki [1] | Ki [2] | Compound
1 | 7100 nM |  | C=C(CN)c1cnc[nH]1 [2-(1H-Imidazol-4-yl)-allylamine]
2 | 170 nM | 200 nM | NCC=Cc1cnc[nH]1
3 | 1700 nM |  | NCC#Cc1cnc[nH]1 [3-(1H-Imidazol-4-yl)-prop-2-ynylamine]
